The test has as its system CD2F1 mice, L1210 leukemia ip, survival T/C. In words: NCI In Vivo Anticancer Drug Screen. Data for tumor model L1210 Leukemia (intraperitoneal) in CD2F1 (CDF1) mice. The following applies: higher = longer survival. Summed up: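 Tumor-bearing mice (transplanted tumor) were split into treated and vehicle control groups, and the measured endpoint of each treated group was divided by that of its vehicle controls.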

Setting [1] is: endpoint: mean survival time, dose: 100.0 mg/kg/injection, schedule: Q01DX001 (ip), vehicle: saline with Tween-80.
Where [2] appears, read: endpoint: mean survival time, dose: 200.0 mg/kg/injection, schedule: Q01DX001 (ip), vehicle: saline with Tween-80.
Setting [3] is: endpoint: mean survival time, dose: 400.0 mg/kg/injection, schedule: Q01DX001 (ip), vehicle: saline with Tween-80.
Setting [4] is: endpoint: mean survival time, dose: 50.0 mg/kg/injection, schedule: Q01DX009 (ip), vehicle: saline with Tween-80.
The mark [5] stands for this setting: endpoint: mean survival time, dose: 100.0 mg/kg/injection, schedule: Q01DX009 (ip), vehicle: saline with Tween-80.
The mark [6] stands for this setting: endpoint: mean survival time, dose: 100.0 mg/kg/injection, schedule: Q04DX003 (ip), vehicle: saline with Tween-80.
Setting [7] is: endpoint: mean survival time, dose: 200.0 mg/kg/injection, schedule: Q01DX009 (ip), vehicle: saline with Tween-80.
Setting [8] is: endpoint: mean survival time, dose: 200.0 mg/kg/injection, schedule: Q04DX003 (ip), vehicle: saline with Tween-80.
Setting [9] is: endpoint: mean survival time, dose: 100.0 mg/kg/injection, schedule: Q01DX001 (ip), vehicle: saline.
The mark [10] stands for this setting: endpoint: mean survival time, dose: 100.0 mg/kg/injection, schedule: Q04DX003 (ip), vehicle: saline.
Setting [11] is: endpoint: mean survival time, dose: 200.0 mg/kg/injection, schedule: Q01DX001 (ip), vehicle: saline.
[12] abbreviates: endpoint: mean survival time, dose: 200.0 mg/kg/injection, schedule: Q04DX003 (ip), vehicle: saline.
The mark [13] stands for this setting: endpoint: mean survival time, dose: 400.0 mg/kg/injection, schedule: Q01DX001 (ip), vehicle: saline.
Where [14] appears, read: endpoint: mean survival time, dose: 400.0 mg/kg/injection, schedule: Q04DX003 (ip), vehicle: saline.
Setting [15] is: endpoint: mean survival time, dose: 100.0 mg/kg/injection, schedule: Q04DX002 (ip), vehicle: other.
[16] abbreviates: endpoint: mean survival time, dose: 200.0 mg/kg/injection, schedule: Q04DX002 (ip), vehicle: other.
Setting [17] is: endpoint: mean survival time, dose: 400.0 mg/kg/injection, schedule: Q04DX002 (ip), vehicle: other.
[18] abbreviates: endpoint: mean survival time, dose: 400.0 mg/kg/injection, schedule: Q01DX009 (ip), vehicle: saline with Tween-80.

The results in this text go back to PubChem BioAssay AID256 (DTP/NCI, 2004).

“And” between values parts separate entries of the source, which are not always exact repeats. Identical values can stand only once. Inconclusive results and toxic doses are left out.

As for `COc1cccc2c1C(=O)c1c(O)c3c(c(O)c1C2=O)C[C@@](O)(C(=O)CO)C[C@@H]3OC1CC(NC=O)C(O)C(C)O1` (some centres not stated), the T/C reads like this: (endpoint: mean survival time, dose: 6.25 mg/kg/injection, schedule: Q04DX003 (ip), vehicle: water) 93 % of control; (endpoint: mean survival time, dose: 12.5 mg/kg/injection, schedule: Q04DX003 (ip), vehicle: water) 93 % of control; (endpoint: mean survival time, dose: 25.0 mg/kg/injection, schedule: Q04DX003 (ip), vehicle: water) 102 % of control; (endpoint: mean survival time, dose: 50.0 mg/kg/injection, schedule: Q04DX003 (ip), vehicle: water) 112 % of control; (endpoint: mean survival time, dose: 100.0 mg/kg/injection, schedule: Q04DX003 (ip), vehicle: water) 114 % of control.

On to `CCOc1cccc(Cc2cn(Cc3cccc(NC(=O)Nc4cccc(S(=O)(=O)F)c4)c3)c(=O)[nH]c2=O)c1`, for which the T/C is 95 % of control under setting [1], 95 % of control under setting [2] and 94 % of control under setting [3].

Regarding `CSc1nc(NC2OCC(O)C(O)C2O)c(I)c(=O)[nH]1` (configuration not stated), the T/C by setting is: (endpoint: median survival time, dose: 12.5 mg/kg/injection, schedule: Q01DX005 (ip), vehicle: saline with Tween-80) 100 % of control; (endpoint: median survival time, dose: 25.0 mg/kg/injection, schedule: Q01DX005 (ip), vehicle: saline with Tween-80) 100 % of control; (endpoint: median survival time, dose: 50.0 mg/kg/injection, schedule: Q01DX005 (ip), vehicle: saline with Tween-80) 103 % of control; (endpoint: median survival time, dose: 100.0 mg/kg/injection, schedule: Q01DX005 (ip), vehicle: saline with Tween-80) 107 % of control; (endpoint: median survival time, dose: 200.0 mg/kg/injection, schedule: Q01DX005 (ip), vehicle: saline with Tween-80) 107 % of control.

On to `N#Cc1c(-c2ccccc2)c(-c2ccccc2)nn(CC(=O)O)c1=O`, for which the T/C (endpoint: median survival time, dose: 25.0 mg/kg/injection, schedule: Q01DX005 (ip), vehicle: distilled water + Tween-80) is 105 % of control; the T/C (endpoint: median survival time, dose: 50.0 mg/kg/injection, schedule: Q01DX005 (ip), vehicle: distilled water + Tween-80) was 90 % of control; the T/C (endpoint: median survival time, dose: 100.0 mg/kg/injection, schedule: Q01DX005 (ip), vehicle: distilled water + Tween-80) was 95 % of control; the T/C (endpoint: median survival time, dose: 200.0 mg/kg/injection, schedule: Q01DX005 (ip), vehicle: distilled water + Tween-80) was 92 % of control.

On to `Brc1ccc(N=C=C(c2ccccc2)c2ccccc2)cc1`, for which the T/C by setting is: under setting [4], 98 % of control; under setting [5], 96 % of control; under setting [6], 92 % of control; under setting [7], 102 % of control; under setting [8], 101 % of control.

Turning to `N#CC(OC1OC(COC2OC(CO)C(O)C(O)C2O)C(O)C(O)C1O)c1ccccc1` (configuration not stated), the T/C (endpoint: mean survival time, dose: 12.5 mg/kg/injection, schedule: Q01DX009 (ip), vehicle: water) is 94 % of control; the T/C (endpoint: mean survival time, dose: 25.0 mg/kg/injection, schedule: Q01DX009 (ip), vehicle: water) was 88 % of control and 104 % of control; the T/C (endpoint: mean survival time, dose: 50.0 mg/kg/injection, schedule: Q01DX009 (ip), vehicle: water) was 98 % of control and 102 % of control; the T/C (endpoint: mean survival time, dose: 100.0 mg/kg/injection, schedule: Q01DX009 (ip), vehicle: water) was 94 % of control and 96 % of control; the T/C (endpoint: mean survival time, dose: 200.0 mg/kg/injection, schedule: Q01DX009 (ip), vehicle: water) is 91 % of control and 102 % of control; the T/C (endpoint: mean survival time, dose: 400.0 mg/kg/injection, schedule: Q01DX009 (ip), vehicle: water) was 95 % of control and 97 % of control. In addition, the T/C (endpoint: mean survival time, dose: 800.0 mg/kg/injection, schedule: Q01DX009 (ip), vehicle: water) was 93 % of control and 100 % of control.

Regarding `O=C1NC(=O)C(=C/C=C/c2ccccc2)C(=O)N1`, the T/C is 97 % of control (endpoint: mean survival time, dose: 12.5 mg/kg/injection, schedule: Q01DX009 (ip), vehicle: saline with Tween-80); 94 % of control (endpoint: mean survival time, dose: 25.0 mg/kg/injection, schedule: Q01DX009 (ip), vehicle: saline with Tween-80); 91 % of control and 103 % of control under setting [4].

For `Cc1cc2[nH]cnc2cc1Cl`, the T/C by setting is: (endpoint: mean survival time, dose: 50.0 mg/kg/injection, schedule: Q01DX009 (ip), vehicle: saline) 98 % of control; (endpoint: mean survival time, dose: 100.0 mg/kg/injection, schedule: Q01DX009 (ip), vehicle: saline) 106 % of control.

On to `COc1cccc(N2CCN(CC(O)COc3ccc(N)cc3)CC2)c1` (configuration not stated), for which the T/C (endpoint: mean survival time, dose: 6.25 mg/kg/injection, schedule: Q04DX002 (ip), vehicle: other) was 98 % of control; the T/C (endpoint: mean survival time, dose: 12.5 mg/kg/injection, schedule: Q04DX002 (ip), vehicle: other) is 95 % of control; the T/C (endpoint: mean survival time, dose: 25.0 mg/kg/injection, schedule: Q04DX002 (ip), vehicle: other) is 107 % of control.

Turning to `COc1cc(CO)ccc1Oc1ccc(C)cc1`, the T/C under setting [9] was 104 % of control; the T/C under setting [10] is 100 % of control; the T/C under setting [11] is 107 % of control; the T/C under setting [12] was 100 % of control; the T/C under setting [13] was 100 % of control; the T/C under setting [14] is 101 % of control.

As for `CCNC(=O)OCCc1c2ccccc2nc2ccccc12`, the T/C was 105 % of control and 102 % of control under setting [15]; 97 % of control and 90 % of control under setting [16]; 94 % of control and 97 % of control under setting [17].

For `CC1(OO)OOC(=O)C1(C)C` (configuration not stated), the T/C is 90 % of control (endpoint: mean survival time, dose: 6.25 mg/kg/injection, schedule: Q04DX002 (ip), vehicle: saline with Tween-80); 93 % of control (endpoint: mean survival time, dose: 12.5 mg/kg/injection, schedule: Q04DX002 (ip), vehicle: saline with Tween-80); 96 % of control (endpoint: mean survival time, dose: 25.0 mg/kg/injection, schedule: Q04DX002 (ip), vehicle: saline with Tween-80).

`CCOc1ccc2ccccc2c1C`: the T/C is 120 % of control under setting [15], 112 % of control under setting [16] and 104 % of control under setting [17].

For the molecule `CC(C)C(C)(C)OC(=O)c1ccc([N+](=O)[O-])cc1`, the T/C by setting is: under setting [9], 100 % of control; under setting [11], 96 % of control; under setting [13], 98 % of control.

For `COC1OC(COC(c2ccccc2)(c2ccccc2)c2ccccc2)C(O)C(O)C1O` (configuration not stated), the T/C is, setting by setting: under setting [9], 100 % of control; under setting [5], 106 % of control; under setting [11], 97 % of control; under setting [7], 96 % of control; under setting [13], 92 % of control; under setting [18], 98 % of control.

As to `O=C(O)CNCP(=O)(O)O`, the T/C under setting [5] is 95 % of control; the T/C under setting [6] is 105 % of control; the T/C under setting [7] is 93 % of control; the T/C under setting [8] is 102 % of control; the T/C under setting [18] was 89 % of control; the T/C (endpoint: mean survival time, dose: 400.0 mg/kg/injection, schedule: Q04DX003 (ip), vehicle: saline with Tween-80) is 100 % of control.

Regarding `COc1ccc(O)c(CC(C)C)c1`, the T/C (endpoint: mean survival time, dose: 100.0 mg/kg/injection, schedule: Q01DX009 (ip), vehicle: acetone) was 100 % of control; the T/C (endpoint: mean survival time, dose: 200.0 mg/kg/injection, schedule: Q01DX009 (ip), vehicle: acetone) is 104 % of control; the T/C (endpoint: mean survival time, dose: 400.0 mg/kg/injection, schedule: Q01DX009 (ip), vehicle: acetone) is 96 % of control.

`Nc1ccn([C@@H](C=O)C[C@@H](C=O)CO)c(=O)n1`: the T/C is, setting by setting: (endpoint: median survival time, dose: 25.0 mg/kg/injection, schedule: Q01DX009 (ip), vehicle: saline) 107 % of control; (endpoint: median survival time, dose: 50.0 mg/kg/injection, schedule: Q01DX009 (ip), vehicle: saline) 121 % of control and 112 % of control; (endpoint: median survival time, dose: 100.0 mg/kg/injection, schedule: Q01DX009 (ip), vehicle: saline) 121 % of control and 124 % of control; (endpoint: median survival time, dose: 400.0 mg/kg/injection, schedule: Q01DX009 (ip), vehicle: saline) 153 % of control and 161 % of control.

For `CN=C1N[N+]2=CCCCC2S1` (configuration not stated), the T/C by setting is: (endpoint: mean survival time, dose: 25.0 mg/kg/injection, schedule: Q04DX003 (ip), vehicle: saline) 94 % of control; (endpoint: mean survival time, dose: 50.0 mg/kg/injection, schedule: Q04DX003 (ip), vehicle: saline) 94 % of control.

In the case of `CCC(CC)C(=O)OCCCCOC(=O)C(CC)CC`, the T/C under setting [10] is 93 % of control, the T/C under setting [12] was 107 % of control and the T/C under setting [14] is 107 % of control.

Consider `Cc1cc(=O)[nH]c2cc(Br)ccc12`, for which the T/C by setting is: under setting [1], 91 % of control; under setting [2], 89 % of control; under setting [3], 87 % of control.
